Read-outs that look alike come from different tables or passages of the source.
What was measured:
Type in all cases: cell-based
S. aureus = assay: Broth dilution MIC determination (CLSI) against S. aureus strains
From the text: (§1) Minimum inhibitory concentrations (MICs) for macrolides described herein have been determined for unique strains of S. aureus, S. pneumoniae, S. pyogenes, E. faecalis, E. coli, A. baumannii, K. pneumoniae, P. aeruginosa, and H. influenzae, including several multidrug-resistant strains, with a special focus on macrolide resistant mechanisms. Azithromycin and solithromycin were included as control compounds. CLSI standard procedures for broth dilution MIC determination were used. Data for exemplary compounds described herein is shown in Tables M1-M7 and in Tables N1-N4.

S. pneumoniae = assay: Broth dilution MIC determination (CLSI) against S. pneumoniae strains
From the text: as §1

S. pyogenes = assay: Broth dilution MIC determination (CLSI) against S. pyogenes strains
From the text: as §1

E. faecalis = assay: Broth dilution MIC determination (CLSI) against E. faecalis strains
From the text: as §1

E. coli = assay: Broth dilution MIC determination (CLSI) against E. coli strains
From the text: as §1

A. baumannii = assay: Broth dilution MIC determination (CLSI) against A. baumannii strains
From the text: as §1

K. pneumoniae = assay: Broth dilution MIC determination (CLSI) against K. pneumoniae strains
From the text: as §1, with “used.” for “used. Data for exemplary compounds described herein is shown in Tables M1-M7 and in Tables N1-N4.”

P. aeruginosa = assay: Broth dilution MIC determination (CLSI) against P. aeruginosa strains
From the text: as §1

Measured: MIC

CC[C@H]1OC(=O)[C@H](C)C(=O)[C@H](C)[C@@H](O[C@@H]2O[C@H](C)CC(N3CCCC3)C2O)[C@](C)(OC)C[C@@H](C)CN[C@H](C)[C@H]2N(CCCCn3cc(-c4cccc(N)c4)nn3)C(=O)O[C@]12C (some centres unmarked) [FSM-120361]
0.25 µg/mL: S. pneumoniae; Streptococcus pneumoniae, ATCC49619, ATCC49619, Strain No. MP-21, read-out: MIC S. pneumoniae ATCC49619
4 µg/mL: E. faecalis; Enterococcus faecalis, ATCC29212, ATCC29212, Strain No. MP-24, read-out: MIC E. faecalis ATCC29212 | E. coli; Escherichia coli, ATCC25922, ATCC25922:tolC, Strain No. MP-9, read-out: MIC E. coli ATCC25922:tolC | K. pneumoniae; Klebsiella pneumoniae, ATCC10031, ATCC10031, Strain No. MP-14, read-out: MIC K. pneumoniae ATCC10031
16 µg/mL: P. aeruginosa; Pseudomonas aeruginosa, PAO1, read-out: MIC P. aeruginosa PAO1:mex
> 64 µg/mL: S. aureus; Staphylococcus aureus, MRSA / USA100, USA100, Strain No. MP-618 UNT-096, read-out: MIC S. aureus (MRSA) USA100 | S. aureus; Staphylococcus aureus, MRSA / USA600, GISA USA600, Strain No. MP-619 UNT-120, read-out: MIC S. aureus (MRSA) GISA USA600 | S. aureus; Staphylococcus aureus, MRSA, ST-228 cErm, Strain No. MP-513, read-out: MIC S. aureus (MRSA) ST-228 cErm | E. faecalis; Enterococcus faecalis, van resistant, Strain No. UNT-039, read-out: MIC E. faecalis van resistant | E. coli; Escherichia coli, clinical-cErm, Strain No. MP532, read-out: MIC E. coli clinical-cErm | A. baumannii; Acinetobacter baumannii, clinical, Strain No. MP576, read-out: MIC A. baumannii clinical | K. pneumoniae; Klebsiella pneumoniae, clinical, Strain No. MP546, read-out: MIC K. pneumoniae clinical | P. aeruginosa; Pseudomonas aeruginosa, PAO1, read-out: MIC P. aeruginosa PAO1 | P. aeruginosa; Pseudomonas aeruginosa, ATCC27853, Strain No. MP-3, read-out: MIC P. aeruginosa ATCC27853
0.125 µg/mL: S. pneumoniae; Streptococcus pneumoniae, read-out: MIC S. pneumoniae mefA, mefA, Strain No. MP-626 UNT-038 | S. pneumoniae; Streptococcus pneumoniae, read-out: MIC S. pneumoniae mefA, mefA, Strain No. MP-627 UNT-039
32 µg/mL: S. aureus; Staphylococcus aureus, ATCC29213, ATCC29213, Strain No. MP-12, read-out: MIC S. aureus ATCC29213 | S. aureus; Staphylococcus aureus, ATCCBAA977, ATCCBAA-977, Strain No. MP-17, read-out: MIC S. aureus ATCCBAA-977 | S. aureus; Staphylococcus aureus, MRSA / USA300, USA300, Strain No. MP-549, read-out: MIC S. aureus (MRSA) USA300 | E. coli; Escherichia coli, ATCC25922, ATCC25922, Strain No. MP-4, read-out: MIC E. coli ATCC25922 | E. coli; Escherichia coli, clinical, Strain No. MP541, read-out: MIC E. coli clinical | A. baumannii; Acinetobacter baumannii, ATCC19606, ATCC19606, Strain No. MP-15, read-out: MIC A. baumannii ATCC19606
0.06 µg/mL: S. pyogenes; Streptococcus pyogenes, ATCC19615, ATCC19615, Strain No. MP-19, read-out: MIC S. pyogenes ATCC19615
0.5 µg/mL: S. pyogenes; Streptococcus pyogenes, mac resistant, Strain No. MP-625 UNT-014, read-out: MIC S. pyogenes mac resistant
64 µg/mL: A. baumannii; Acinetobacter baumannii, clinical, Strain No. MP577, read-out: MIC A. baumannii clinical | K. pneumoniae; Klebsiella pneumoniae, clinical, Strain No. MP548, read-out: MIC K. pneumoniae clinical

CCC1OC(=O)C(C)C(=O)C(C)C(OC2OC(C)CC(N(CCO)CCO)C2O)C(C)(OC)CC(C)CNC(C)C2N(CCCCn3cc(-c4cccc(N)c4)nn3)C(=O)OC12C (centres unmarked) [FSM-120379]
4 µg/mL: S. pyogenes; S. pyogenes ATCC19615, strain MP-19 (Table N2)
>64 µg/mL: S. aureus; S. aureus (MRSA) GISA USA600, strain MP-619 UNT-120 (Table N2) | S. aureus; S. aureus (MRSA) ST-228 cErm, strain MP-513 (Table N2) | S. aureus; S. aureus (MRSA) USA100, strain MP-618 UNT-096 (Table N2) | S. aureus; S. aureus (MRSA) USA300, strain MP-549 (Table N2) | S. aureus; S. aureus (MRSA) ermA phenotype, strain MP-620 UNT-146 (Table N2) | S. aureus; S. aureus ATCC29213, strain MP-12 (Table N2) | S. aureus; S. aureus ATCCBAA-977, strain MP-17 (Table N2) | E. faecalis; E. faecalis van resistant, strain UNT-039 (Table N2) | E. coli; E. coli ATCC25922, strain MP-4 (Table N2) | E. coli; E. coli clinical, strain MP541 (Table N2) | E. coli; E. coli clinical-cErm, strain MP532 (Table N2) | A. baumannii; A. baumannii ATCC19606, strain MP-15 (Table N2) | A. baumannii; A. baumannii clinical, strain MP576 (Table N2) | A. baumannii; A. baumannii clinical, strain MP577 (Table N2) | K. pneumoniae; K. pneumoniae clinical, strain MP546 (Table N2) | K. pneumoniae; K. pneumoniae clinical, strain MP548 (Table N2) | P. aeruginosa; P. aeruginosa ATCC27853, strain MP-3 (Table N2) | P. aeruginosa; P. aeruginosa PAO1, strain MP-7 (Table N2) | P. aeruginosa; P. aeruginosa PAO1:mex, strain MP-8 (Table N2)
32 µg/mL: E. faecalis; E. faecalis ATCC29212, strain MP-24 (Table N2) | E. coli; E. coli ATCC25922:tolC, strain MP-9 (Table N2) | K. pneumoniae; K pneumomae ATCC10031, strain MP-14 (Table N2)
16 µg/mL: S. pyogenes; S. pyogenes mac resistant, strain MP-625 UNT-014 (Table N2)
1 µg/mL: S. pneumoniae; S. pneumoniae mefA, strain MP-626 UNT-038 (Table N2) | S. pneumoniae; S. pneumoniae mefA, strain MP-627 UNT-039 (Table N2)
2 µg/mL: S. pneumoniae; S. pneumoniae ATCC49619, strain MP-21 (Table N2)

From patent publication US11535643B2, “Macrolides with modified desosamine sugars and uses thereof” (President and Fellows of Harvard College, priority 2015, dated 2022)
